Laboratory results reported in article PMC4490784, “Compensatory induction of MYC expression by sustained CDK9 inhibition via a BRD4-dependent mechanism” (eLife, 2015).
pIC50: −log10 of the molar value.

Tests used:
[1] = target: JAK2(JH1domain-catalytic) (Homo sapiens, UniProt O60674); assay: biochemical binding or enzymatic assay; design: JAK2(JH1domain-catalytic); details: Novartis
Method: (§1) Finally, the selectivity profile of i-CDK9 toward other non-CDK kinases was also assessed using the KINOMEscan platform. […] Except for CLK4, for which no suitable assay was available, the rest of the kinases plus a selected group of others were re-examined for the concentration-dependent effect of i-CDK9 in either functional kinase assays or binding assays. […] Indeed, it has recently been reported that DYRK1A acts as a Pol II CTD Kinase at its target gene promoters ([Di Vona et al., 2015]).

[2] = target: JAK1(JH1domain-catalytic) (Homo sapiens, UniProt P23458); assay: biochemical binding or enzymatic assay; design: JAK1(JH1domain-catalytic); details: Novartis
Method: as §1

MINK = target: T1, MINK (Homo sapiens, UniProt Q8N4C8); assay: KINOMEscan binding assay; details: read-out: % Retention on Solid Support
T1 construct: purchased DiscoveRx KINOMEscan
Procedure, shortened: (§2)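 Over 400 kinases were screened. i-CDK9 was applied at 1 and 10 µM. Occupancy was read by competition with an active site-directed ligand.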

HIPK2 = target: T2, HIPK2 (Homo sapiens, UniProt Q9H2X6); assay: KINOMEscan binding assay; details: read-out: % Retention on Solid Support
T2 construct: purchased DiscoveRx KINOMEscan
Procedure, shortened: as §2

PLK1 = target: T3, PLK1 (Homo sapiens, UniProt P53350); assay: KINOMEscan binding assay; details: read-out: % Retention on Solid Support
T3 construct: purchased DiscoveRx KINOMEscan
Procedure, shortened: as §2

MAPKAPK2 = target: T4, MAPKAPK2 (Homo sapiens, UniProt P49137); assay: KINOMEscan binding assay; details: read-out: % Retention on Solid Support
T4 construct: purchased DiscoveRx KINOMEscan
Procedure, shortened: as §2

PIK3CA(C420R) = target: T5, PIK3CA(C420R) (Homo sapiens, UniProt P42336, C420R); assay: KINOMEscan binding assay; details: read-out: % Retention on Solid Support
T5 construct: purchased DiscoveRx KINOMEscan
Procedure, shortened: as §2

PAK2 = target: T6, PAK2 (Homo sapiens, UniProt Q13177); assay: KINOMEscan binding assay; details: read-out: % Retention on Solid Support
T6 construct: purchased DiscoveRx KINOMEscan
Procedure, shortened: as §2

CAMK2B = target: T7, CAMK2B (Homo sapiens, UniProt Q13554); assay: KINOMEscan binding assay; details: read-out: % Retention on Solid Support
T7 construct: purchased DiscoveRx KINOMEscan
T7 sequence (Q13554 whole entry): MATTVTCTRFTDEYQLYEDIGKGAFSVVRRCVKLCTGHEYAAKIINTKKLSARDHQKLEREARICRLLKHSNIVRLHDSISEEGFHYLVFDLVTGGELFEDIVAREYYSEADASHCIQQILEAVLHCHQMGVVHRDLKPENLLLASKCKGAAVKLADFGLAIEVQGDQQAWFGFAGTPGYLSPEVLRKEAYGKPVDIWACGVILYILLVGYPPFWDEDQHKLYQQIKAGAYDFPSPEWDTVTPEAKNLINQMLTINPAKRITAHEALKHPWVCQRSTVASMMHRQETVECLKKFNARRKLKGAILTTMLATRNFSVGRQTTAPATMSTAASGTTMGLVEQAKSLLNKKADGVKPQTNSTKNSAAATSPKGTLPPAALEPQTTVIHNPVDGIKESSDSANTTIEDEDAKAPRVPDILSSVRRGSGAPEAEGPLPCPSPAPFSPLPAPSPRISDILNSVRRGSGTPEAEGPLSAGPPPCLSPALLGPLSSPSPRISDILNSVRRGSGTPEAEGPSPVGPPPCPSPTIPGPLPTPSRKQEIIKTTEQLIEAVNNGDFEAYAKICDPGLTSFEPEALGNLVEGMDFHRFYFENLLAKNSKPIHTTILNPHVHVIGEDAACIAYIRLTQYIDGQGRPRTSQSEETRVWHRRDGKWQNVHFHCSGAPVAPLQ
Procedure, shortened: as §2

[3] = target: T8, ABL1(Q252H)-phosphorylated (Homo sapiens, UniProt P00519, Q252H); assay: KINOMEscan binding assay; details: 1 µM i-CDK9; read-out: % Retention on Solid Support
T8 construct: purchased DiscoveRx KINOMEscan
Procedure, shortened: as §2

IGF1R = target: T9, IGF1R (Homo sapiens, UniProt P08069); assay: KINOMEscan binding assay; details: read-out: % Retention on Solid Support
T9 construct: purchased DiscoveRx KINOMEscan
T9 sequence (P08069 31-1367): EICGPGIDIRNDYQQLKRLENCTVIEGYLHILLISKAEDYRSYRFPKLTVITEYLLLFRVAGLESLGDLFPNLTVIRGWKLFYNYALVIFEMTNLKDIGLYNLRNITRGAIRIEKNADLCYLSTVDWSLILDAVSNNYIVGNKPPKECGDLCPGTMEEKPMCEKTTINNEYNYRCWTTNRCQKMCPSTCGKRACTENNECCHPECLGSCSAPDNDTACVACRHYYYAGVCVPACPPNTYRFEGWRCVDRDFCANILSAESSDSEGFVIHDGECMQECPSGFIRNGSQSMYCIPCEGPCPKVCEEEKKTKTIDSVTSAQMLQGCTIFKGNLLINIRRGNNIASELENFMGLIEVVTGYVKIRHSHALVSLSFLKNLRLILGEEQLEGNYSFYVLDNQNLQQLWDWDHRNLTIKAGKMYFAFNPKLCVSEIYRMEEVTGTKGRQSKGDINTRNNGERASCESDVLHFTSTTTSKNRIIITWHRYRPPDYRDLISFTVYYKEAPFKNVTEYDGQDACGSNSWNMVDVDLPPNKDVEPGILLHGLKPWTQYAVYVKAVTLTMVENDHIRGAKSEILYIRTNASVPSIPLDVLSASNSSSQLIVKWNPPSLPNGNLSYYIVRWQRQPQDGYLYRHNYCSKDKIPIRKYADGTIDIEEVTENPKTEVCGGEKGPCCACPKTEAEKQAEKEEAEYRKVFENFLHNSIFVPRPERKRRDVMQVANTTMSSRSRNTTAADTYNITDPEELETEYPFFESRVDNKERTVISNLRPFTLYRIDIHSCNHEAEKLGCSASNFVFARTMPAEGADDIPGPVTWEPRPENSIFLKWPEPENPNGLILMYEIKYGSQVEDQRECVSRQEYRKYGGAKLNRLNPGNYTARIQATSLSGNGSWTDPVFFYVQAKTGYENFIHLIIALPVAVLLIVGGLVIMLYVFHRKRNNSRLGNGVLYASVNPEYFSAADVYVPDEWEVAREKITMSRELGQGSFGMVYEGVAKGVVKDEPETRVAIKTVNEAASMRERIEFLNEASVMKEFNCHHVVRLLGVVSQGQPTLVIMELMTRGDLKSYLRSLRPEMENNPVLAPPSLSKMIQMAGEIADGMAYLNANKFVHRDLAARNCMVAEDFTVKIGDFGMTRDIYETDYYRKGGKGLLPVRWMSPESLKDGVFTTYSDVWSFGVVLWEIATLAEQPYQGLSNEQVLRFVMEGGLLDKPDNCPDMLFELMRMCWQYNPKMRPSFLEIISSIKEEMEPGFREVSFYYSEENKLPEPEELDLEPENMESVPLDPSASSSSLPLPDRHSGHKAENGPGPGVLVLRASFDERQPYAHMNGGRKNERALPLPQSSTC
Procedure, shortened: as §2

CSNK1A1 = target: T10, CSNK1A1 (Homo sapiens, UniProt P48729); assay: KINOMEscan binding assay; details: 1 µM i-CDK9; read-out: % Retention on Solid Support
T10 construct: purchased DiscoveRx KINOMEscan
Procedure, shortened: as §2

TNK2 = target: T11, TNK2 (Homo sapiens, UniProt Q07912); assay: KINOMEscan binding assay; details: read-out: % Retention on Solid Support
T11 construct: purchased DiscoveRx KINOMEscan
Procedure, shortened: as §2

BMPR1A = target: T12, BMPR1A (Homo sapiens, UniProt P36894); assay: KINOMEscan binding assay; details: read-out: % Retention on Solid Support
T12 construct: purchased DiscoveRx KINOMEscan
Procedure, shortened: as §2

HUNK = target: T13, HUNK (Homo sapiens, UniProt P57058); assay: KINOMEscan binding assay; details: read-out: % Retention on Solid Support
T13 construct: purchased DiscoveRx KINOMEscan
T13 sequence (P57058 whole entry): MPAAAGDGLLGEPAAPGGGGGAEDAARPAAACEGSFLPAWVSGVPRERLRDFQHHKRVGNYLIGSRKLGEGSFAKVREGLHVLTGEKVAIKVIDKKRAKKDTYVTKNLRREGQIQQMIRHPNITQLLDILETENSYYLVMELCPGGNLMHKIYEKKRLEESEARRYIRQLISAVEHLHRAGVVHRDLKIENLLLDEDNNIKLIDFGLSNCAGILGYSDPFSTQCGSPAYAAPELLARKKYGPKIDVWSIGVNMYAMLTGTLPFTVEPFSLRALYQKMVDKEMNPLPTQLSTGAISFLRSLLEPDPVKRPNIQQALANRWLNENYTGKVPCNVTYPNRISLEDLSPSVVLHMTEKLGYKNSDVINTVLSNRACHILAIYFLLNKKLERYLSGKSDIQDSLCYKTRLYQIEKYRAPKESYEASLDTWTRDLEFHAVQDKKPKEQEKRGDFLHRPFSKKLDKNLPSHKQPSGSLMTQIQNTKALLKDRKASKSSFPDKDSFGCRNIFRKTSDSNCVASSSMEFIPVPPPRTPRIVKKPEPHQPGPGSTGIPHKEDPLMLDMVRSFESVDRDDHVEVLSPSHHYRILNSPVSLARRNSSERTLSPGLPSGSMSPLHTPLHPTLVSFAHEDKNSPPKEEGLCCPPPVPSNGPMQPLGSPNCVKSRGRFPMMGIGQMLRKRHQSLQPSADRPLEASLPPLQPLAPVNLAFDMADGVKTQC
Procedure, shortened: as §2

ALK = target: T14, ALK (Homo sapiens, UniProt Q9UM73); assay: KINOMEscan binding assay; details: read-out: % Retention on Solid Support
T14 construct: purchased DiscoveRx KINOMEscan
T14 sequence (Q9UM73 19-1620): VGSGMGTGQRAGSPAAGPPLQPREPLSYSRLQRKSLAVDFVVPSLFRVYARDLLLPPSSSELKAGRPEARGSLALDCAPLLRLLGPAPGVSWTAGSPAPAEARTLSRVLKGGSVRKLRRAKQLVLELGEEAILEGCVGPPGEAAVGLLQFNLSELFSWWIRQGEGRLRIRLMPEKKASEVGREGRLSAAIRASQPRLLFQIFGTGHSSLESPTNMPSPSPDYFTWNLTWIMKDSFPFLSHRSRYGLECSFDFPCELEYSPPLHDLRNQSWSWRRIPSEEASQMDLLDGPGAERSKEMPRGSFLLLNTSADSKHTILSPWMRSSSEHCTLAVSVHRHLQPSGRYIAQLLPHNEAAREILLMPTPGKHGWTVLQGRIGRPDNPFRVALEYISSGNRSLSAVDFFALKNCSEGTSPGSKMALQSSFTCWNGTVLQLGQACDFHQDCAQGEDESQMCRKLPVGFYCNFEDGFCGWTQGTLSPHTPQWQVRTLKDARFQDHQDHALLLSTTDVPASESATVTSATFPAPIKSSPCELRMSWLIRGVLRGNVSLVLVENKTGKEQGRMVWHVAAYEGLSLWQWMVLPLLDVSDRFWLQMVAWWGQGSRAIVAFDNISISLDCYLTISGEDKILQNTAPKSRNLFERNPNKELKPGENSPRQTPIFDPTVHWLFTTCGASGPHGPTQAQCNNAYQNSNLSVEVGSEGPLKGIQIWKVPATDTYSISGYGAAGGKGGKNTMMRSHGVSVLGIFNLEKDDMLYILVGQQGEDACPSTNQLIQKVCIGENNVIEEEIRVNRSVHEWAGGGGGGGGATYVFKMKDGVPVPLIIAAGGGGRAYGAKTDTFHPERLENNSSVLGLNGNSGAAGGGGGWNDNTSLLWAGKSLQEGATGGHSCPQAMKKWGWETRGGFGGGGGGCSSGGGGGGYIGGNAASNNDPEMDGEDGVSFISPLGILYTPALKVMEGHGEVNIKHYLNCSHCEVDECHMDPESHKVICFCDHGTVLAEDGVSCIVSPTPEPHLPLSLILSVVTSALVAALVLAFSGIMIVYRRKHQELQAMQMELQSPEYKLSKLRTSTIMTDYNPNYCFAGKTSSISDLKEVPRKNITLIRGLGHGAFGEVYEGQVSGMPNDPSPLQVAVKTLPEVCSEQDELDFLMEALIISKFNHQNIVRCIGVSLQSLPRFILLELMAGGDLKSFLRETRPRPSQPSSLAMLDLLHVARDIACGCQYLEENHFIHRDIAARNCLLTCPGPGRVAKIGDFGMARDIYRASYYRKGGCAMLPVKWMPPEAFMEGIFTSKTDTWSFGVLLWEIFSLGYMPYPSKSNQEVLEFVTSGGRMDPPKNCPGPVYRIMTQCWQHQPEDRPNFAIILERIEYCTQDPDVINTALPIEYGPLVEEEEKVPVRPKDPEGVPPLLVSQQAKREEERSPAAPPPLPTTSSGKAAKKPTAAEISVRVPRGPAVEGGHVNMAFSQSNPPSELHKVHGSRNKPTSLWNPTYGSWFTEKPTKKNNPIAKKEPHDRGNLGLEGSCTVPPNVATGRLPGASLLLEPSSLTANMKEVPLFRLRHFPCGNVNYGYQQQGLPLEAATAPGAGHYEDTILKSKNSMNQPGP
Procedure, shortened: as §2

SIK = target: T15, SIK (Homo sapiens, UniProt P57059); assay: KINOMEscan binding assay
T15 construct: purchased DiscoveRx KINOMEscan
Procedure, shortened: as §2

MARK3 = target: T16, MARK3 (Homo sapiens, UniProt P27448); assay: KINOMEscan binding assay; details: read-out: % Retention on Solid Support
T16 construct: purchased DiscoveRx KINOMEscan
Procedure, shortened: as §2

MEK2 = target: T17, MEK2 (Homo sapiens, UniProt P36507); assay: KINOMEscan binding assay; details: read-out: % Retention on Solid Support
T17 construct: purchased DiscoveRx KINOMEscan
T17 sequence (P36507 whole entry): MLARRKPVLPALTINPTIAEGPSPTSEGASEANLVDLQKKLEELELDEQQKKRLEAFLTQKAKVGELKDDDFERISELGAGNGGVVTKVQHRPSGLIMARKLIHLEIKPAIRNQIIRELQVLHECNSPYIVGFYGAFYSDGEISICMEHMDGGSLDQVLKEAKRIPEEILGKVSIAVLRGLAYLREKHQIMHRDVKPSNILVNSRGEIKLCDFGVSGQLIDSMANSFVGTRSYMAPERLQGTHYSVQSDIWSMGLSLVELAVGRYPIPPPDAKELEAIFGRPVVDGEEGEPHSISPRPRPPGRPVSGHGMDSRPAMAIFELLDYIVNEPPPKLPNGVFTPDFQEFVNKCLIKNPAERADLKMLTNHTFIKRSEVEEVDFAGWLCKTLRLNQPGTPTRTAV
Procedure, shortened: as §2

JNK1 = target: T18, JNK1 (Homo sapiens, UniProt P45983); assay: KINOMEscan binding assay
T18 construct: purchased DiscoveRx KINOMEscan
Procedure, shortened: as §2

DAPK2 = target: T19, DAPK2 (Homo sapiens, UniProt Q9UIK4); assay: KINOMEscan binding assay; details: read-out: % Retention on Solid Support
T19 construct: purchased DiscoveRx KINOMEscan
T19 sequence (Q9UIK4 whole entry): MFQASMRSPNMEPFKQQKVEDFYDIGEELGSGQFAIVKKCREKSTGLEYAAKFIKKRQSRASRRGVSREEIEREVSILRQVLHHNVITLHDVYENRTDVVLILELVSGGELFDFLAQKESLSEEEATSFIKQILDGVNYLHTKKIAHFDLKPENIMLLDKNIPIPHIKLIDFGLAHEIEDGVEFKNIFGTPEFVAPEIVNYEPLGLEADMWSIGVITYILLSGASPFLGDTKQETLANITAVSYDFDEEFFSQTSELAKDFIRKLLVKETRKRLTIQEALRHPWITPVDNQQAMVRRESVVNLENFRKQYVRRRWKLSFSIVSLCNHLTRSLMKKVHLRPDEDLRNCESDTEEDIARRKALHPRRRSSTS
Procedure, shortened: as §2

YSK1 = target: T20, YSK1 (Homo sapiens, UniProt O00506); assay: KINOMEscan binding assay; details: read-out: % Retention on Solid Support
T20 construct: purchased DiscoveRx KINOMEscan
Procedure, shortened: as §2

TLK1 = target: T21, TLK1 (Homo sapiens, UniProt Q9UKI8); assay: KINOMEscan binding assay; details: read-out: % Retention on Solid Support
T21 construct: purchased DiscoveRx KINOMEscan
Procedure, shortened: as §2

PYK2 = target: T22, PYK2 (Homo sapiens, UniProt Q14289); assay: KINOMEscan binding assay; details: read-out: % Retention on Solid Support
T22 construct: purchased DiscoveRx KINOMEscan
Procedure, shortened: as §2

LRRK2 = target: T23, LRRK2 (Homo sapiens, UniProt Q5S007); assay: KINOMEscan binding assay; details: 1 µM i-CDK9; read-out: % Retention on Solid Support
T23 construct: purchased DiscoveRx KINOMEscan
Procedure, shortened: as §2

NDR2 = target: T24, NDR2 (Homo sapiens, UniProt Q9Y2H1); assay: KINOMEscan binding assay; details: read-out: % Retention on Solid Support
T24 construct: purchased DiscoveRx KINOMEscan
Procedure, shortened: as §2

recombinant CDK12-CycK = target: T25, recombinant CDK12-CycK (Homo sapiens, UniProt Q9NYV4); assay: In vitro kinase reaction with baculovirus-produced recombinant kinase (SignalChem); type: biochemical
T25 construct: purchased SignalChem; host or cells: baculovirus-produced

For `N[C@H]1CC[C@H](Nc2cc(-c3cccc(NCc4cccc(F)c4)n3)c(Cl)cn2)CC1` [i-CDK9, N2′-(trans-4-aminocyclohexyl)-5′-chloro-N6-(3-fluorobenzyl)-2,4′-bipyridine-2′,6-diamine], the pIC50 [1] was less than 5.00, the pIC50 [2] was less than 5.00 and the remaining binding at 1 µM (MINK; 1 µM i-CDK9) was 100%. For the same compound, the remaining binding at 10 µM (MINK; 10 µM i-CDK9) was 65%, the remaining binding at 1 µM (HIPK2; 1 µM i-CDK9) was 100% and the remaining binding at 10 µM (HIPK2; 10 µM i-CDK9) was 37%. For the same compound, the remaining binding at 1 µM (PLK1; 1 µM i-CDK9) was 100%, the remaining binding at 10 µM (PLK1; 10 µM i-CDK9) was 92% and the remaining binding at 1 µM (MAPKAPK2; 1 µM i-CDK9) was 100%. The remaining binding at 10 µM (MAPKAPK2; 10 µM i-CDK9) was 100%, the remaining binding at 1 µM (PIK3CA(C420R); 1 µM i-CDK9) was 100% and the remaining binding at 10 µM (PIK3CA(C420R); 10 µM i-CDK9) was 100%. It also gave a remaining binding at 1 µM (PAK2; 1 µM i-CDK9) of 98%, a remaining binding at 10 µM (PAK2; 10 µM i-CDK9) of 91% and a remaining binding at 1 µM (CAMK2B; 1 µM i-CDK9) of 100%. It also gave a remaining binding at 10 µM (CAMK2B; 10 µM i-CDK9) of 81%, a remaining binding at 1 µM [3] of 100% and a remaining binding at 1 µM (IGF1R; 1 µM i-CDK9) of 94%. It also gave a remaining binding at 10 µM (IGF1R; 10 µM i-CDK9) of 100%, a remaining binding at 1 µM (CSNK1A1) of 69% and a remaining binding at 1 µM (TNK2; 1 µM i-CDK9) of 88%. The remaining binding at 10 µM (TNK2; 10 µM i-CDK9) was 99%, the remaining binding at 1 µM (BMPR1A; 1 µM i-CDK9) was 63% and the remaining binding at 10 µM (BMPR1A; 10 µM i-CDK9) was 100%. The remaining binding at 1 µM (HUNK; 1 µM i-CDK9) was 86%, the remaining binding at 10 µM (HUNK; 10 µM i-CDK9) was 52% and the remaining binding at 1 µM (ALK; 1 µM i-CDK9) was 86%. The remaining binding at 10 µM (ALK; 10 µM i-CDK9) was 70%, the “% Retention on Solid Support” value (SIK; 1 µM i-CDK9) was 100% and the “% Retention on Solid Support” value (SIK; 10 µM i-CDK9) was 100%. It also gave a remaining binding at 1 µM (MARK3; 1 µM i-CDK9) of 94%, a remaining binding at 10 µM (MARK3; 10 µM i-CDK9) of 71% and a remaining binding at 1 µM (MEK2; 1 µM i-CDK9) of 96%. The remaining binding at 10 µM (MEK2; 10 µM i-CDK9) was 100%, the “% Retention on Solid Support” value (JNK1; 1 µM i-CDK9) was 80% and the “% Retention on Solid Support” value (JNK1; 10 µM i-CDK9) was 34%. The remaining binding at 1 µM (DAPK2; 1 µM i-CDK9) was 90%, the remaining binding at 10 µM (DAPK2; 10 µM i-CDK9) was 80% and the remaining binding at 1 µM (YSK1; 1 µM i-CDK9) was 98%. For the same compound, the remaining binding at 10 µM (YSK1; 10 µM i-CDK9) was 96%, the remaining binding at 1 µM (TLK1; 1 µM i-CDK9) was 62% and the remaining binding at 10 µM (TLK1; 10 µM i-CDK9) was 95%. The remaining binding at 1 µM (PYK2; 1 µM i-CDK9) was 100%, the remaining binding at 10 µM (PYK2; 10 µM i-CDK9) was 100% and the remaining binding at 1 µM (LRRK2) was 100%. For the same compound, the remaining binding at 1 µM (NDR2; 1 µM i-CDK9) was 95%, the remaining binding at 10 µM (NDR2; 10 µM i-CDK9) was 100% and the “i-CDK9 concentration at which the kinase was significantly inhibited” value (recombinant CDK12-CycK) was 640 to 1200 nM.
